Reference: article PMC9863297, “Intermolecular Interactions of Edaravone in Aqueous Solutions of Ethaline and Glyceline Inferred from Experiments and Quantum Chemistry Computations” (Molecules, 2023)
Like-named read-outs stand apart in the source and are kept apart here.

Experiment: Edaravone solubility, slurry/shake-flask method with spectrophotometric determination at 243 nm
Type: physicochemical
Settings: thermodynamic from solid, read-out: cE solubility concentration
Experimental: The first step in obtaining a calibration curve was the preparation of a stock solution of edaravone with a concentration of 2.3 mg/mL. This initial solution was successfully diluted in 10 mL volumetric flasks with methanol and the obtained solutions with decreasing concentrations were measured spectrophotometrically. […] Three separate curves were obtained, and the final curve resulted from averaging. […] The limits of detection (LOD) and quantification (LOQ) were calculated as 5.899∙10^−4 mg/mL and 1.770∙10^−3 mg/mL, respectively.
All of the studied deep eutectic solvents included choline chloride, while the second constituent was either glycerol or ethylene glycol. In order to prepare a DES formulation, choline chloride was mixed with the second compound in different molar ratios in sealed test tubes and placed in a water bath at 363.15 K until the formation of a uniform solution. The obtained DES were either used in their neat form or water was added to them in different proportions in order to form binary systems.
During the next stage, edaravone was added in excess amounts to the test tubes containing both neat DES and binary mixtures, which enabled us to obtain its saturated solutions. Samples prepared in such a manner were placed in an Orbital Shaker Incubator ES-20/60 from Biosan (Riga, Latvia) and incubated for 24 h at different temperatures, namely 298.15 K, 303.15 K, 308.15 K and 313.15 K. The temperature adjustment accuracy was 0.1 K and its variability in a 24 h cycle was ±0.5 K. Apart from heating, all of the samples were mixed at 60 rev/min. The increased viscosity and density of DES systems required the samples to be centrifuged at 1000 rev/min for 5 min with the use of EBA 20 centrifuge from Hettich (Tuttlingen, Germany) enabling the undissolved precipitate to remain on the bottom of the test tubes. Next, the samples were filtered using a syringe equipped with a PTFE syringe filer with 0.22 µm pore size. In order to avoid precipitation, the test tubes, syringes and filters were initially heated at a temperature equal to the one of the handled samples. Finally, small amounts of the obtained filtrate were transferred to test tubes filled with methanol and the diluted samples were measured spectrophotometrically. Additionally, for the determination of the mole fractions of edaravone, the density of the samples was measured by weighing a fixed volume of the solution in 10 mL volumetric flasks.
For determining the solubility of edaravone in the studied systems, the samples prepared, as described above, were measured spectrophotometrically using an A360 spectrophotometer from AOE Instruments (Shanghai, China). The spectra were recorded in the 190 nm to 500 nm wavelength range and 1 nm resolution. Methanol was used for the initial calibration of the spectrophotometer and for the dilution of the measured samples, which was conducted in order for the absorbance values to remain below 2.5. The absorbance values at 243 nm were taken into account and based on the calibration curve prepared earlier, the concentration of edaravone in the samples was determined, followed by its mole fractions. The values were averaged from three separate measurements.

solubility at 24 h (25 °C, aqueous with cosolvent or surfactant or cyclodextrin, water + ETA (ChCl:EG 1:2), x*ETA = 0.2, 298.15 K): 221 mg/mL
solubility at 24 h (25 °C, aqueous with cosolvent or surfactant or cyclodextrin, water + ETA (ChCl:EG 1:2), x*ETA = 0.4, 298.15 K): 407 mg/mL
solubility at 24 h (25 °C, aqueous with cosolvent or surfactant or cyclodextrin, water + ETA (ChCl:EG 1:2), x*ETA = 0.5, 298.15 K): 457 mg/mL
solubility at 24 h (25 °C, aqueous with cosolvent or surfactant or cyclodextrin, water + GLE (ChCl:GL 1:2), x*GLE = 0.2, 298.15 K): 115 mg/mL
solubility at 24 h (25 °C, aqueous with cosolvent or surfactant or cyclodextrin, water + GLE (ChCl:GL 1:2), x*GLE = 0.4, 298.15 K): 233 mg/mL
solubility at 24 h (25 °C, aqueous with cosolvent or surfactant or cyclodextrin, water + GLE (ChCl:GL 1:2), x*GLE = 0.5, 298.15 K): 299 mg/mL
solubility at 24 h (25 °C, aqueous with cosolvent or surfactant or cyclodextrin, water + GLE (ChCl:GL 1:2), x*GLE = 0.8, 298.15 K): 266 mg/mL
solubility at 24 h (25 °C, organic solvent or mixture, neat DES choline chloride + glycerol (GLE) 1:2 molar ratio (x*GLE = 1.0), 298.15 K): 191 mg/mL
solubility at 24 h (25 °C, organic solvent or mixture, neat DES choline chloride + glycerol (GLE) 1:4 molar ratio, 298.15 K): 177 mg/mL
solubility at 24 h (30 °C, aqueous with cosolvent or surfactant or cyclodextrin, water + ETA (ChCl:EG 1:2), x*ETA = 0.2, 303.15 K): 270 mg/mL
solubility at 24 h (30 °C, aqueous with cosolvent or surfactant or cyclodextrin, water + ETA (ChCl:EG 1:2), x*ETA = 0.4, 303.15 K): 505 mg/mL
solubility at 24 h (30 °C, aqueous with cosolvent or surfactant or cyclodextrin, water + ETA (ChCl:EG 1:2), x*ETA = 0.5, 303.15 K): 554 mg/mL
solubility at 24 h (30 °C, aqueous with cosolvent or surfactant or cyclodextrin, water + GLE (ChCl:GL 1:2), x*GLE = 0.2, 303.15 K): 148 mg/mL
solubility at 24 h (30 °C, aqueous with cosolvent or surfactant or cyclodextrin, water + GLE (ChCl:GL 1:2), x*GLE = 0.4, 303.15 K): 328 mg/mL
solubility at 24 h (30 °C, aqueous with cosolvent or surfactant or cyclodextrin, water + GLE (ChCl:GL 1:2), x*GLE = 0.5, 303.15 K): 415 mg/mL
solubility at 24 h (30 °C, aqueous with cosolvent or surfactant or cyclodextrin, water + GLE (ChCl:GL 1:2), x*GLE = 0.6, 303.15 K): 464 mg/mL
solubility at 24 h (30 °C, aqueous with cosolvent or surfactant or cyclodextrin, water + GLE (ChCl:GL 1:2), x*GLE = 0.8, 303.15 K): 364 mg/mL
solubility at 24 h (30 °C, organic solvent or mixture, neat DES choline chloride + glycerol (GLE) 1:1 molar ratio, 303.15 K): 203 mg/mL
solubility at 24 h (30 °C, organic solvent or mixture, neat DES choline chloride + glycerol (GLE) 1:2 molar ratio (x*GLE = 1.0), 303.15 K): 282 mg/mL
solubility at 24 h (30 °C, organic solvent or mixture, neat DES choline chloride + glycerol (GLE) 1:4 molar ratio, 303.15 K): 246 mg/mL
solubility at 24 h (35 °C, aqueous with cosolvent or surfactant or cyclodextrin, water + ETA (ChCl:EG 1:2), x*ETA = 0.2, 308.15 K): 331 mg/mL
solubility at 24 h (35 °C, aqueous with cosolvent or surfactant or cyclodextrin, water + ETA (ChCl:EG 1:2), x*ETA = 0.4, 308.15 K): 603 mg/mL
solubility at 24 h (35 °C, aqueous with cosolvent or surfactant or cyclodextrin, water + GLE (ChCl:GL 1:2), x*GLE = 0.2, 308.15 K): 201 mg/mL
solubility at 24 h (35 °C, aqueous with cosolvent or surfactant or cyclodextrin, water + GLE (ChCl:GL 1:2), x*GLE = 0.4, 308.15 K): 402 mg/mL
solubility at 24 h (35 °C, aqueous with cosolvent or surfactant or cyclodextrin, water + GLE (ChCl:GL 1:2), x*GLE = 0.5, 308.15 K): 518 mg/mL
solubility at 24 h (35 °C, aqueous with cosolvent or surfactant or cyclodextrin, water + GLE (ChCl:GL 1:2), x*GLE = 0.6, 308.15 K): 567 mg/mL
solubility at 24 h (35 °C, aqueous with cosolvent or surfactant or cyclodextrin, water + GLE (ChCl:GL 1:2), x*GLE = 0.8, 308.15 K): 472 mg/mL
solubility at 24 h (35 °C, organic solvent or mixture, neat DES choline chloride + glycerol (GLE) 1:1 molar ratio, 308.15 K): 274 mg/mL
solubility at 24 h (35 °C, organic solvent or mixture, neat DES choline chloride + glycerol (GLE) 1:2 molar ratio (x*GLE = 1.0), 308.15 K): 369 mg/mL
solubility at 24 h (35 °C, organic solvent or mixture, neat DES choline chloride + glycerol (GLE) 1:4 molar ratio, 308.15 K): 336 mg/mL
solubility at 24 h (40 °C, aqueous with cosolvent or surfactant or cyclodextrin, water + ETA (ChCl:EG 1:2), x*ETA = 0.2, 313.15 K): 382 mg/mL
solubility at 24 h (40 °C, aqueous with cosolvent or surfactant or cyclodextrin, water + ETA (ChCl:EG 1:2), x*ETA = 0.4, 313.15 K): 684 mg/mL
solubility at 24 h (40 °C, aqueous with cosolvent or surfactant or cyclodextrin, water + GLE (ChCl:GL 1:2), x*GLE = 0.2, 313.15 K): 252 mg/mL
solubility at 24 h (40 °C, aqueous with cosolvent or surfactant or cyclodextrin, water + GLE (ChCl:GL 1:2), x*GLE = 0.4, 313.15 K): 514 mg/mL
solubility at 24 h (40 °C, aqueous with cosolvent or surfactant or cyclodextrin, water + GLE (ChCl:GL 1:2), x*GLE = 0.5, 313.15 K): 647 mg/mL
SMILES: CC1=NN(c2ccccc2)C(=O)C1 [edaravone, 5-methyl-2-phenyl-4H-pyrazol-3-one]
